Data reported in patent US11572399B2, “Long-acting GIP peptide analogues” (University of Copenhagen, priority 2017, dated 2023).
pIC50: −log10 of the molar value. Read-outs that look alike come from different tables or passages of the source. Numbered stars: 1 amine (or outer) side, 2 acyl side, 3 side chain; on linkers, the order of the positions; unused ones are H or OH. Side chains are listed from the residue outwards. Peptide text beside a SMILES is read from it. * marks the point of attachment. C16 diacid = O=C(O)CCCCCCCCCCCCCCC(=O)*; γGlu = O=C(O)[C@H](CCC(=O)[*:2])N[*:1]; Palmitoyl = CCCCCCCCCCCCCCCC(=O)*; βAla = NCCC(=O)O

Columns and labels:
human GIP receptor [1] = target: T1, human GIP receptor (Homo sapiens, UniProt P48546); assay: cAMP accumulation assay, antagonism of a GIP-mediated cAMP response (50-80% of max); format: cell-based
T1 construct: host or cells: COS-7, transient transfection (calcium phosphate), cDNA in pCMV-Script
T1 sequence (P48546 22-466): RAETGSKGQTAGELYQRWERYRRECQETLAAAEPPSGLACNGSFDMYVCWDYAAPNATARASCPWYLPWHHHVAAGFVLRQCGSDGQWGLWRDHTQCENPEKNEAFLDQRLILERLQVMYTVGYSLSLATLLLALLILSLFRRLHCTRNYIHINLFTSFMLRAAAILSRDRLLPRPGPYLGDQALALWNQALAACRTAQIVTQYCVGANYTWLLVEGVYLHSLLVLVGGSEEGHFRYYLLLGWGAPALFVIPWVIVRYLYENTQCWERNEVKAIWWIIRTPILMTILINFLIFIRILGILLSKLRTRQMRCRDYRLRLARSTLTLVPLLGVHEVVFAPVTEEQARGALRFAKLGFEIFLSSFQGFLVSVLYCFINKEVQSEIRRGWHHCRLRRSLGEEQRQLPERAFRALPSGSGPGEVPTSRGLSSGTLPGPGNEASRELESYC
Procedure: The day after, the cells were washed twice with Hepes buffered saline (HBS) buffer and incubated with HBS and 1 mM 3-isobutyl-1-methylxanthine (IBMX) for 30 min at 37° C. […] The HitHunter™ cAMP XS assay (DiscoveRx) was carried out according to the manufacturer's instructions.

[2] = Solubility of linker analogues; format: physicochemical; conditions: read-out: Solubility, obtainable concentration
human GIP receptor [3] = target: T1, human GIP receptor; assay: cAMP accumulation assay, agonism (ligand alone); format: cell-based; conditions: COS-7, intrinsic cAMP activity; COS-7 cells; Table 1
human GIP receptor [4] = target: T1, human GIP receptor; assay: 125I-human GIP competition binding assay, in the presence and absence of 2% HSA;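 note: nonspecific binding taken as radioligand bound to untransfected cells, IC50 obtained from nonlinear regression fits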
[5] = Elimination half-life (T1/2) estimated in pigs, subcutaneous, RIA; format: in vivo; conditions: pig
Procedure: LYH/LYD strain pigs or mini-pigs were housed in the animal facility at the Faculty of Health and Medical Sciences.
A pig was subcutaneously administered one of the lipidated GIP(3-30)NH2 analogs (compound AT117) (1-10 nmol/kg, total volume 2-6 mL) after which 10-18 blood samples were collected before and up to 57 hours post subcutaneous administration) from a central venous catheter. The catheter was flushed with saline and heparin between samples. Blood was collected into cold EDTA tubes, centrifuged and plasma was kept at −20° C. pending analyses. When experiments are completed, the animals will be killed.
Concentrations of the lipidated GIP(3-30)NH2 or GIP(5-30)NH2 analogues in blood samples from pigs were analysed by RIA. Analogues' immunoreactivity was determined using antiserum Ab95234, Ab95235, Ab95236, a polyclonal in-house antibody raised in rabbits specific for either the mid region of GIP(1-30)NH2 or amidated C-terminus of GIP(3-30)NH2.

[6] = pigs, previously showed; cited from earlier work
[7] = humans, previously determined; cited from earlier work

CCCCCCCCCCCCCCCC(=O)N[C@@H](CCC(=O)NCCCC[C@H](NC(=O)[C@@H](NC(=O)[C@H](CCCCN)NC(=O)[C@H](CC(=O)O)NC(=O)[C@H](CCSC)NC(=O)[C@H](C)NC(=O)[C@@H](NC(=O)[C@H](CO)NC(=O)[C@H](Cc1ccc(O)cc1)NC(=O)[C@H](CC(=O)O)NC(=O)[C@H](CO)NC(=O)[C@@H](NC(=O)[C@H](Cc1ccccc1)NC(=O)[C@@H](NC(=O)CNC(=O)[C@@H](N)CCC(=O)O)[C@@H](C)O)[C@@H](C)CC)[C@@H](C)CC)[C@@H](C)CC)C(=O)N[C@@H](CCC(N)=O)C(=O)N[C@@H](CCC(N)=O)C(=O)N[C@@H](CC(=O)O)C(=O)N[C@@H](Cc1ccccc1)C(=O)N[C@H](C(=O)N[C@@H](CC(N)=O)C(=O)N[C@@H](Cc1c[nH]c2ccccc12)C(=O)N[C@@H](CC(C)C)C(=O)N[C@@H](CC(C)C)C(=O)N[C@@H](C)C(=O)N[C@@H](CCC(N)=O)C(=O)N[C@@H](CCCCN)C(N)=O)C(C)C)C(=O)O [AT164, [hGIP(3-30)NH2[H18K]-C16/18+y-glutamic acid]] (H-EGTFISDYSIAMDKIK([γGlu-Palmitoyl])QQDFVNWLLAQK-NH2; N-terminus assumed)
Fold change from GIP(3-30)NH2 (increase in potency) (human GIP receptor [1]; Table 5): 6.3 fold | solubility [2]: ≥ 200 µM

CCCCCCCCCCCCCCCC(=O)NCCC(=O)NCCCC[C@H](NC(=O)[C@@H](NC(=O)[C@H](CCCCN)NC(=O)[C@H](CC(=O)O)NC(=O)[C@H](CCSC)NC(=O)[C@H](C)NC(=O)[C@@H](NC(=O)[C@H](CO)NC(=O)[C@H](Cc1ccc(O)cc1)NC(=O)[C@H](CC(=O)O)NC(=O)[C@H](CO)NC(=O)[C@@H](NC(=O)[C@H](Cc1ccccc1)NC(=O)[C@@H](NC(=O)CNC(=O)[C@@H](N)CCC(=O)O)[C@@H](C)O)[C@@H](C)CC)[C@@H](C)CC)[C@@H](C)CC)C(=O)N[C@@H](CCC(N)=O)C(=O)N[C@@H](CCC(N)=O)C(=O)N[C@@H](CC(=O)O)C(=O)N[C@@H](Cc1ccccc1)C(=O)N[C@H](C(=O)N[C@@H](CC(N)=O)C(=O)N[C@@H](Cc1c[nH]c2ccccc12)C(=O)N[C@@H](CC(C)C)C(=O)N[C@@H](CC(C)C)C(=O)N[C@@H](C)C(=O)N[C@@H](CCC(N)=O)C(=O)N[C@@H](CCCCN)C(N)=O)C(C)C [AT166, [hGIP(3-30)NH2[H18K]-C16/18+β-alanine]] (H-EGTFISDYSIAMDKIK([βAla-Palmitoyl])QQDFVNWLLAQK-NH2; N-terminus assumed)
Fold change from GIP(3-30)NH2 (increase in potency) (human GIP receptor [1]; Table 5): 2.9 fold | solubility [2]: ≤ 63.2 µM

CC[C@H](C)[C@H](NC(=O)[C@H](CCCCN)NC(=O)[C@H](CC(=O)O)NC(=O)[C@H](CCSC)NC(=O)[C@H](CCCCNC(=O)CCCCCCCCCCCCCCC(=O)O)NC(=O)[C@@H](NC(=O)[C@H](CO)NC(=O)[C@H](Cc1ccc(O)cc1)NC(=O)[C@H](CC(=O)O)NC(=O)[C@H](CO)NC(=O)[C@@H](NC(=O)[C@H](Cc1ccccc1)NC(=O)[C@@H](N)[C@@H](C)O)[C@@H](C)CC)[C@@H](C)CC)C(=O)N[C@@H](Cc1c[nH]cn1)C(=O)N[C@@H](CCC(N)=O)C(=O)N[C@@H](CCC(N)=O)C(=O)N[C@@H](CC(=O)O)C(=O)N[C@@H](Cc1ccccc1)C(=O)N[C@H](C(=O)N[C@@H](CC(N)=O)C(=O)N[C@@H](Cc1c[nH]c2ccccc12)C(=O)N[C@@H](CC(C)C)C(=O)N[C@@H](CC(C)C)C(=O)N[C@@H](C)C(=O)N[C@@H](CCC(N)=O)C(=O)N[C@@H](CCCCN)C(N)=O)C(C)C [AT175, [hGIP(5-30)NH2[A13K]-C16diacid/13]] (H-TFISDYSIK(C16 diacid)MDKIHQQDFVNWLLAQK-NH2; N-terminus assumed)
Ability to antagonize the GIP-mediated cAMP response (in words) (human GIP receptor [1]): highest antagonistic potencies | Fold change of IC50 versus GIP(5-30)NH2 (human GIP receptor [1]; fold change of IC50 from GIP(5-30)NH2): 0.5 | Emax (human GIP receptor [3]): 0% | Fold change HSA (2%)/Casein (0.1%) (human GIP receptor [4]; IC50 (plus HSA)/IC50 (minus HSA)): 7.8 | Ki (human GIP receptor [4]; absence of HSA): 53 nM | IC50 (human GIP receptor [4]; binding in 0.1% casein (absence of HSA), log value, read-out: logIC50 0.1% casein (converted)): 79.4 nM | IC50 (human GIP receptor [4]; binding in presence of 2% HSA, read-out: logIC50 2% HSA (converted)): 562 nM | Binding (+/−HSA) Fold (human GIP receptor [4]; fold change +HSA/−HSA): 9.4 | Fold change in affinity, IC50 (plus HSA)/IC50 (minus HSA) (human GIP receptor [4]; presence vs absence of 2% HSA, proxy for albumin binding): 7.8 fold | half-life ([5]; plasma, sc, pigs, subcutaneous 1-10 nmol/kg): 6 h | T½ ([5]; subcutaneous): 6 h

CC[C@H](C)[C@H](NC(=O)[C@H](CO)NC(=O)[C@H](Cc1ccc(O)cc1)NC(=O)[C@H](CC(=O)O)NC(=O)[C@H](CO)NC(=O)[C@@H](NC(=O)[C@H](Cc1ccccc1)NC(=O)[C@@H](NC(=O)CNC(=O)[C@@H](N)CCC(=O)O)[C@@H](C)O)[C@@H](C)CC)C(=O)N[C@@H](C)C(=O)N[C@@H](CCSC)C(=O)N[C@@H](CC(=O)O)C(=O)N[C@@H](CCCCN)C(=O)N[C@H](C(=O)N[C@@H](Cc1c[nH]cn1)C(=O)N[C@@H](CCC(N)=O)C(=O)N[C@@H](CCC(N)=O)C(=O)N[C@@H](CC(=O)O)C(=O)N[C@@H](Cc1ccccc1)C(=O)N[C@H](C(=O)N[C@@H](CC(N)=O)C(=O)N[C@@H](Cc1c[nH]c2ccccc12)C(=O)N[C@@H](CC(C)C)C(=O)N[C@@H](CC(C)C)C(=O)N[C@@H](C)C(=O)N[C@@H](CCC(N)=O)C(=O)N[C@@H](CCCCN)C(N)=O)C(C)C)[C@@H](C)CC [hGIP(3-30)NH2, reference compound]
pIC50 (human GIP receptor [1]; cAMP antagonism log, given as log IC50 (negative sign), transiently transfected COS-7 cells, Table 1): 7.20 | IC50 (human GIP receptor [1]; cAMP antagonism nM (IC50, antagonistic potency), transiently transfected COS-7 cells, Table 1 and text): 65 nM | cAMP accumulation logIC50 ± SEM (human GIP receptor [1]; given as log IC50 (negative sign), linker analogues, n=2, Table 5): −7.19 ± 0.10 | T1/2 [6]: 7.5 min | T1/2 [7]: 7.5 min
